Laboratory results: patent US20230219962A1, “PYRAZOLO[4,3-d]PYRIMIDINE DERIVATIVES AND METHODS OF USE THEREOF FOR THE TREATMENT OF CELLULAR PROLIFERATIVE DISORDERS” (Merck Sharp & Dohme LLC, priority 2020, published 2023)

Experiments:
hTLR7 = molecular target: T1, hTLR7 (Homo sapiens, UniProt Q9NYK1); experiment: Human TLR7 Reporter Assay; type: cell-based; settings: HEK-Blue hTLR7 cells, 16 hours, normalized to CL097 (6 μM) and DMSO
T1 construct: host or cells: HEK-Blue hTLR7 cells (HEK293-derived, own knowledge)
T1 sequence (Q9NYK1 27-1049): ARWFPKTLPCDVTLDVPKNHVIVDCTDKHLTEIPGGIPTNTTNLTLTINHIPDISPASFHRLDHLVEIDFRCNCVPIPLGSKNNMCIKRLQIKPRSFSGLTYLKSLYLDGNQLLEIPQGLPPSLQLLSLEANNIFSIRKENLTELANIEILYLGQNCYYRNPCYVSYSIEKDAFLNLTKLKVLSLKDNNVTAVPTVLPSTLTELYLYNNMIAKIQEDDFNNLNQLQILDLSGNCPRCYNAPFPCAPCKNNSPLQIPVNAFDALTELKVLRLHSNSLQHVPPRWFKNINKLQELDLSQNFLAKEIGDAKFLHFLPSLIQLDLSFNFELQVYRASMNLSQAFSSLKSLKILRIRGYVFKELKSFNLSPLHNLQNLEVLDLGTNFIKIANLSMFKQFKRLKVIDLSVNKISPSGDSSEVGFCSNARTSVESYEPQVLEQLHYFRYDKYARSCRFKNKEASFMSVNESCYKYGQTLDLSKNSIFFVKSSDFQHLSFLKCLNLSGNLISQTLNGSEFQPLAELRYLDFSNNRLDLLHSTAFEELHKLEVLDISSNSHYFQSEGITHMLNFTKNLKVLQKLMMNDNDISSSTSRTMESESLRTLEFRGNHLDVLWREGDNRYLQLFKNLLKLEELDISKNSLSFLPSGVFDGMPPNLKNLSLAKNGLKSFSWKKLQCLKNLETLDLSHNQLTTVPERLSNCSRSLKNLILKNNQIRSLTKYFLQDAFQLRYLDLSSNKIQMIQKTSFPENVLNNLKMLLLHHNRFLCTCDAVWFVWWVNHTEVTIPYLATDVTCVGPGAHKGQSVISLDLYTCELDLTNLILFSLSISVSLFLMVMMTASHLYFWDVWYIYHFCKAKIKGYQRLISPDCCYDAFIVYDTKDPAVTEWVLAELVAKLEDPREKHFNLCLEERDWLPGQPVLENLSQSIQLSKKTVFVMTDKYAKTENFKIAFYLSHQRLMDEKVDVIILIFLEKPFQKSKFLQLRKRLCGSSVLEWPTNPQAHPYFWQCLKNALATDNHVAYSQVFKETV
Summary of the method: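 HEK-Blue hTLR7 reporter cells (20,000/well) incubated 16 h at 37 °C with 10-point 3-fold compound dilutions; SEAP read by absorbance at 620 nm. Effects normalized between CL097 (6 μM) and DMSO controls; EC50 from 4-parameter fit.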

hTLR8 = molecular target: T2, hTLR8 (Homo sapiens, UniProt Q9NR97); experiment: Human TLR8 Reporter Assay; type: cell-based; settings: HEK-Blue hTLR8 cells, 16 hours, normalized to tl8-506 (1 μM) and DMSO
T2 construct: host or cells: HEK-Blue hTLR8 cells (HEK293-derived, own knowledge)
T2 sequence (Q9NR97 27-1041): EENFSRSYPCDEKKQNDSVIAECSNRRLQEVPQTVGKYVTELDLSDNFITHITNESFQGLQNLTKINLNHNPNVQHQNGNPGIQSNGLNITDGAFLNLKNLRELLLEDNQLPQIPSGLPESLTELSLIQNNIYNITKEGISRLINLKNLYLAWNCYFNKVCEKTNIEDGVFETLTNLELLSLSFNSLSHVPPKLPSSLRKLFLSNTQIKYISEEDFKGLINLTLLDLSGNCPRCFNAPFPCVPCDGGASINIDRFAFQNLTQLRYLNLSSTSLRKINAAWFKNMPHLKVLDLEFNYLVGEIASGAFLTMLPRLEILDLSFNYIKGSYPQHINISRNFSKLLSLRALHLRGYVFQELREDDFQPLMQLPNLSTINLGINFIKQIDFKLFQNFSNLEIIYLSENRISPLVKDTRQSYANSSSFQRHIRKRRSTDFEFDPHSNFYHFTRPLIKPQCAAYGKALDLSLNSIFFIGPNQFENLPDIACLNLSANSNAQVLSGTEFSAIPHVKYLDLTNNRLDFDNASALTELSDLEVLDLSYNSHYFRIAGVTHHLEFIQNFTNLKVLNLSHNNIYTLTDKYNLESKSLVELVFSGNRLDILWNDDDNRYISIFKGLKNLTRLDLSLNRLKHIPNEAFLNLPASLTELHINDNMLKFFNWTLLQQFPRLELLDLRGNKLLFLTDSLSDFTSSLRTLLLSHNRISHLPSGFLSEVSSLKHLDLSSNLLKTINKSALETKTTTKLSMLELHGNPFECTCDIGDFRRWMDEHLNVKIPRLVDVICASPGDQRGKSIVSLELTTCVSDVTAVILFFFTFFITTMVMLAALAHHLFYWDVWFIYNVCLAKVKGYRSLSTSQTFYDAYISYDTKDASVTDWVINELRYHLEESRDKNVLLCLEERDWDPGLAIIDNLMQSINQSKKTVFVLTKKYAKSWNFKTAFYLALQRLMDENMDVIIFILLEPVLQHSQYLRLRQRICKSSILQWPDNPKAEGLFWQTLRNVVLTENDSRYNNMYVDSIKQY
Summary of the method: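 HEK-Blue hTLR8 cells (20,000/well) incubated 16 h at 37 °C with 10-point 3-fold compound dilutions in HEK-Blue Detection medium; reporter read as absorbance at 620 nm. Effects normalized between DMSO and tl8-506 (1 μM); EC50 from 4-parameter fit.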

Compound | EC50 (hTLR7) | EC50 (hTLR8)
COc1ccccc1Cn1cc2nc(N)nc(N3CCC(CO)C3)c2n1 (centres unmarked) [Compound 24] | 2.45 µM | > 29.9 µM
CCCCNc1nc(N)nc2cn(Cc3ccncc3OC)nc12 [Compound 93] | 0.12 µM | 0.611 µM
CCCCNc1nc(N)nc2cn(Cc3ccc(C4CCNC4=O)cc3)nc12 (centres unmarked) [Compound 200] | 0.185 µM | 4.9 µM
CCCCNc1nc(N)nc2cn(Cc3ccc(C4CCCN4)cc3)nc12 (centres unmarked) [Compound 205] | 0.409 µM | 0.519 µM
CCCCNc1nc(N)nc2cn(Cc3c(OC)cc(CNC(=O)CCN4C(=O)C=CC4=O)cc3OC)nc12 [Compound 96] | 1.97 µM | 7.84 µM
CCCC(Nc1nc(N)nc2cn(Cc3c(OC)cccc3OC)nc12)C(F)(F)F (centres unmarked) [Compound 124] | 0.266 µM | > 9.98 µM
CCC[C@@H](CO)Nc1nc(N)nc2cn(Cc3ccc(N4CCN(C(=O)C5CCC(CN6C(=O)C=CC6=O)CC5)CC4)cc3OC)nc12 (some centres unmarked) [Compound 153] | 1.06 µM | 3.14 µM
CCCCNc1nc(N)nc2cn(Cc3cc(CN4CC(CN)C4)ccc3OC)nc12 [Compound 151] | 2.26 µM | 0.869 µM
CCC[C@@H](CO)Nc1nc(N)nc2cn(Cc3c(OC)cc(CN(C)C)cc3OC)nc12 [Compound 199] | 0.108 µM | 0.0399 µM
CCCCNc1nc(N)nc2cn(Cc3ncc(N4CCNCC4)cc3OC)nc12 [Compound 99] | 0.633 µM | 1.38 µM
CCCCNc1nc(N)nc2cn(CCc3ccccc3OC)nc12 [Compound 36] | 3.1 µM | > 29.9 µM
CCCCNc1nc(N)nc2cn(Cc3nc(C)no3)nc12 [Compound 170] | 1.56 µM | 4.43 µM
CCCCNc1nc(N)nc2cn(Cc3ccc(CC(C)N)cc3OC)nc12 (centres unmarked) [Compound 176] | 0.329 µM | 0.467 µM
CCCCNc1nc(N)nc2cn(Cc3ccc(CN4CC(CN5C(=O)C=CC5=O)C4)cc3OC)nc12 [Compound 127] | 1.24 µM | 3.3 µM
CCC[C@H](C)Nc1nc(N)nc2cn(Cc3c(OC)cc(CNC)cc3OC)nc12 [Compound 190] | 0.187 µM | 2.21 µM
CCCCNc1nc(N)nc2cn(Cc3c(OC)cc(C(C)NC)cc3OC)nc12 (centres unmarked) [Compound 209] | 0.2 µM | 0.161 µM
CCCCNc1nc(N)nc2cn(Cc3ccccc3OC)nc12 [Compound 1] | 0.665 µM | 4.9 µM
CCC[C@@H](CO)Nc1nc(N)nc2cn(Cc3c(OC)cccc3OC)nc12 [Compound 108] | 0.0293 µM | 0.116 µM
CCCCNc1nc(N)nc2cn(Cc3c(F)cccc3F)nc12 [Compound 41] | 0.0686 µM | 0.71 µM
C=CCN(C)Cc1nc(Cn2cc3nc(N)nc(NCCCC)c3n2)c(C)o1 [Compound 169] | 1.85 µM | 4.06 µM
CCCCNc1nc(N)nc2cn(Cc3c(OC)cc(CN4CCN(C(=O)C5CCC(CN6C(=O)C=CC6=O)CC5)CC4)cc3OC)nc12 (centres unmarked) [Compound 74] | 3.33 µM | > 29.9 µM
CCCCNc1nc(N)nc2cn(Cc3c(OC)cc(CCN)cc3OC)nc12 [Compound 67] | 0.281 µM | 0.392 µM
CCCCNc1nc(N)nc2cn(Cc3c(OC)ccc(N)c3OC)nc12 [Compound 77] | 0.49 µM | 1.53 µM
CCCCNc1nc(N)nc2cn(Cc3cc(C)no3)nc12 [Compound 171] | 0.516 µM | 2.52 µM
CCCCNc1nc(N)nc2cn(Cc3ccc4c(c3)CCC4N)nc12 (centres unmarked) [Compound 235] | 0.361 µM | 2.47 µM
CCCCNc1nc(N)nc2cn(Cc3c(OC)cc(CN4CC(N)C4)cc3OC)nc12 [Compound 192] | 0.653 µM | 1.16 µM
CCCCNc1nc(N)nc2cn(Cc3nc(Br)oc3C)nc12 [Compound 160] | 0.373 µM | 8.3 µM

The next lines start with the values.

EC50 (hTLR7) | EC50 (hTLR8) | Compound
2.04 µM | 4.96 µM | CCCCNc1nc(N)nc2cn(Cc3ncc(CN4CCNCC4)cc3OC)nc12 [Compound 94]
20.1 µM | 15.5 µM | CCC[C@@H](CO)Nc1nc(N)nc2cn(Cc3c(OC)cc(CN(C)CCCN)cc3OC)nc12 [Compound 210]
0.541 µM | 0.86 µM | CCCCNc1nc(N)nc2cn(Cc3ccc(CN4CC(N)C4)cc3OC)nc12 [Compound 191]
1.15 µM | 9.55 µM | CCCCNc1nc(N)nc2cn(Cc3nc(N4CCNCC4)ccc3OC)nc12 [Compound 159]
0.628 µM | 0.637 µM | CCCCNc1nc(N)nc2cn(Cc3cc(CN)ccc3OC)nc12 [Compound 146]
0.0768 µM | 0.153 µM | C=CCN(C)Cc1ccc(Cn2cc3nc(N)nc(N[C@H](CO)CCC)c3n2)c(OC)c1 [Compound 156]
1.36 µM | 4.68 µM | CCCCNc1nc(N)nc2cn(Cc3nc(CNC)oc3C)nc12 [Compound 165]
0.0517 µM | 0.0917 µM | CCCCNc1nc(N)nc2cn(Cc3ccc(C(C)NCCC)cc3OC)nc12 (centres unmarked) [Compound 217]
3.35 µM | 4.33 µM | CCCCNc1nc(N)nc2cn(Cc3c(OC)ccc(CN4C(=O)C=CC4=O)c3OC)nc12 [Compound 95]
0.68 µM | 1.25 µM | CCCCNc1nc(N)nc2cn(Cc3ccc(CN4CCNCC4)cc3OC)nc12 [Compound 131]
5.44 µM | 12.4 µM | CCCCNc1nc(N)nc2cn(Cc3[nH]cnc3C)nc12 [Compound 188]
4.73 µM | > 29.9 µM | COc1cccc(OC)c1Cn1cc2nc(N)nc(NCCC(C)O)c2n1 (centres unmarked) [Compound 51]
0.964 µM | 2.64 µM | CCCCNc1nc(N)nc2cn(Cc3cc(N4CCNCC4)ccc3OC)nc12 [Compound 59]
0.119 µM | 1.02 µM | CCCCNc1nc(N)nc2cn(Cc3c(OC)cc(N)cc3OC)nc12 [Compound 65]
0.0979 µM | 0.422 µM | CCCCNc1nc(N)nc2cn(Cc3c(OC)cc(CN4C(=O)C=CC4=O)cc3OC)nc12 [Compound 103]
0.125 µM | 0.813 µM | CCCCNc1nc(N)nc2cn(Cc3c(OCC)cccc3OCC)nc12 [Compound 40]
0.267 µM | 3.04 µM | CCCCNc1nc(N)nc2cn(Cc3cc(CN4CCN(C(=O)C5CCC(CN6C(=O)C=CC6=O)CC5)CC4)ccc3OC)nc12 (centres unmarked) [Compound 71]
0.299 µM | 0.906 µM | CCCCNc1nc(N)nc2cn(Cc3c(OC)cccc3OCCCCO)nc12 [Compound 208]
0.226 µM | 1.89 µM | CCCCNc1nc(N)nc2cn(Cc3ccccc3OC(F)F)nc12 [Compound 179]
